Data reported in publication PMC10164568 (2023).

Legend:
[1] = test system: 3H3Md-TET (DNA, aptamer) CGGTGGTGCGGTGGTGAAACACCAAAACACCAAAA; experiment: ThT displacement fluorescence; settings: 10 mM Tris-HCl pH 7.4; 12.5 μM compound; ThT displaced
[2] = test system: 6H3M0 (DNA, hairpin) TTTTTTTTTTTTTTTTTTTTTTTTTAAAAAAAAAAAAAAAAAAAAAAAAAAAAAAA; experiment: ThT fluorescence enhancement; settings: 10 mM Tris-HCl pH 7.4, room temperature; 1 μM DNA, 1 μM ThT
[3] = test system: H-BB (DNA, hairpin) ACATAATTTAATATTTATGTTAACATAAATATTAAATTATGT; experiment: UV-vis absorption shift; settings: 10 mM Tris-HCl pH 7.4; 2.5 μM ThT in UV-vis

Row | binding [1] | binding [2] | binding [3] | Compound
1 | weak |  |  | CN(C)[C@@H]1C(=O)C(C(N)=O)=C(O)[C@@]2(O)C(=O)C3=C(O)c4c(O)cccc4[C@@](C)(O)[C@H]3[C@H](O)[C@@H]12
2 | weak |  |  | C[C@H]1c2cccc(O)c2C(=O)C2=C(O)[C@]3(O)C(=O)C(C(N)=O)=C(O)[C@@H](N(C)C)[C@@H]3[C@@H](O)[C@@H]21
3 |  | weak | weak | Cc1ccc2c(c1)sc(-c1ccc(N(C)C)cc1)[n+]2C
